Results reported in ChEMBL document CHEMBL3991601, “The target landscape of clinical kinase drugs” (Science, 2017).
Activity calls are given as the source filed them.

Columns and labels:
[1] = molecular target: Cyclin-dependent kinase 2 (Homo sapiens, UniProt P24941)
[2] = molecular target: T1, Bifunctional phosphoribosylaminoimidazole carboxylase/phosphoribosylaminoimidazole succinocarboxamide synthetase (Homo sapiens, UniProt P22234)
T1 sequence (P22234 whole entry): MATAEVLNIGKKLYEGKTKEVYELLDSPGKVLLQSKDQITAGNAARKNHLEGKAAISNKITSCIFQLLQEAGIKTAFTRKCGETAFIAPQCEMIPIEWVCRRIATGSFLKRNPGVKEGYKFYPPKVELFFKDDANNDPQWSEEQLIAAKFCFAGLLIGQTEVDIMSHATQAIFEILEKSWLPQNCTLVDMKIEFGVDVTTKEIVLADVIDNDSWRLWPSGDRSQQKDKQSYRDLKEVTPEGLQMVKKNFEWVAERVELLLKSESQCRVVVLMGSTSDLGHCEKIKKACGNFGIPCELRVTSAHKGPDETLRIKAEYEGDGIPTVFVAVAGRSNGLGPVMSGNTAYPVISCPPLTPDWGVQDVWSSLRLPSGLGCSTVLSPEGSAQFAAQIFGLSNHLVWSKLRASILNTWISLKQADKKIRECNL

[3] = molecular target: T2, Receptor-type tyrosine-protein kinase FLT3 (Homo sapiens, UniProt P36888)
T2 sequence (P36888 whole entry): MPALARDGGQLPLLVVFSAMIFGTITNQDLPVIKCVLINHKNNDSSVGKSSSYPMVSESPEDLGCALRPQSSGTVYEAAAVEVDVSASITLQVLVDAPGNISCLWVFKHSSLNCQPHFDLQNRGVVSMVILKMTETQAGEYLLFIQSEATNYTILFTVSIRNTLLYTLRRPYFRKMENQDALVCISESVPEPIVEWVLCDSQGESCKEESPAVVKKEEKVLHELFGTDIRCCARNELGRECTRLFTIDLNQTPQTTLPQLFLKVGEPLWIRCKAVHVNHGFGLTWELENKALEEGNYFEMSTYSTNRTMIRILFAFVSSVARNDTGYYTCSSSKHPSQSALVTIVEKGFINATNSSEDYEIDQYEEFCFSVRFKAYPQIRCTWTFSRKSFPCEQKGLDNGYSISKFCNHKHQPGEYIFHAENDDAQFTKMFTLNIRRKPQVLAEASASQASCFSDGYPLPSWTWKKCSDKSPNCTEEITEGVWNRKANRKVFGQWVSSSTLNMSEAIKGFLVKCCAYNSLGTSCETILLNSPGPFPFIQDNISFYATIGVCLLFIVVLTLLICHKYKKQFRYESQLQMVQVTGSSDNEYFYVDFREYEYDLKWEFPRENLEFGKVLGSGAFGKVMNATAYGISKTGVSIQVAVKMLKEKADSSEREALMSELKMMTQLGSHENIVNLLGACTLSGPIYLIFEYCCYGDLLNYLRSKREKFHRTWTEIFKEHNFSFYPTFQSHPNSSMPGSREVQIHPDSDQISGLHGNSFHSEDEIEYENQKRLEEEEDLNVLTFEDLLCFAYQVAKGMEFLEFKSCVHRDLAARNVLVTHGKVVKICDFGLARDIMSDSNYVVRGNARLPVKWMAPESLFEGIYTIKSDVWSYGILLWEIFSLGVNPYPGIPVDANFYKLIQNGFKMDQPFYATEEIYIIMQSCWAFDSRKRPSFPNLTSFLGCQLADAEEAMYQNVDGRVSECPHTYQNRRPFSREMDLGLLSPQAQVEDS

[4] = molecular target: T3, Interleukin-1 receptor-associated kinase 3 (Homo sapiens, UniProt Q9Y616)
T3 sequence (Q9Y616 whole entry): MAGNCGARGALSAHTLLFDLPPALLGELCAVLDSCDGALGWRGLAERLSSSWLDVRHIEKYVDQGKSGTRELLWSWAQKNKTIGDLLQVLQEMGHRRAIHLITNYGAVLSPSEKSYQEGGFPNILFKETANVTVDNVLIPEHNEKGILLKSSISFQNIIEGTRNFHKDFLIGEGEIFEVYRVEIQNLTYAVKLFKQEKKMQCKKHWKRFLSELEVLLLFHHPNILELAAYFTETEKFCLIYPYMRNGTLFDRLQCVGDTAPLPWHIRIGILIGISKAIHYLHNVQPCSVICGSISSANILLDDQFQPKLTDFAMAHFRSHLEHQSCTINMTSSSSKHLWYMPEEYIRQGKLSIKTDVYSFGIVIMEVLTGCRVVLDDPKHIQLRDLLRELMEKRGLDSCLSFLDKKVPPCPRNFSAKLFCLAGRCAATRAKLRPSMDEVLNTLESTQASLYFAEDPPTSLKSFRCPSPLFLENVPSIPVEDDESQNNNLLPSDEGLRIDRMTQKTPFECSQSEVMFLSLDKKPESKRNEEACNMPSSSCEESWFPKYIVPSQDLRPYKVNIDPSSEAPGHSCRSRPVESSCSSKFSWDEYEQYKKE

[5] = molecular target: T4, Delta(24)-sterol reductase (Homo sapiens, UniProt Q15392)
T4 sequence (Q15392 whole entry): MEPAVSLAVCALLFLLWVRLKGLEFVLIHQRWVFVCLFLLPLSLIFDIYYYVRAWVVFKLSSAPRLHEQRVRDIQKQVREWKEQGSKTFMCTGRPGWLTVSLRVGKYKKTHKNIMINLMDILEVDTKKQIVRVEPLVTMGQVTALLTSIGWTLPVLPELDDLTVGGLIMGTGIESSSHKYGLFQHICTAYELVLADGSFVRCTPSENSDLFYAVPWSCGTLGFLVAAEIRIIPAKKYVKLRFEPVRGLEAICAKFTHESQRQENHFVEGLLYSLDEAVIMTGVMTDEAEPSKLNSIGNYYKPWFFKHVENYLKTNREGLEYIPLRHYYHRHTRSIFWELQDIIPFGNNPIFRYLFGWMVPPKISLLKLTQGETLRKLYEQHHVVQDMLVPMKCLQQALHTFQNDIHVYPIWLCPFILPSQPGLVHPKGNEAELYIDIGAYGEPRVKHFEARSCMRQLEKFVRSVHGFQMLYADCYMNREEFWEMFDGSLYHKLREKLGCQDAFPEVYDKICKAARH

[6] = molecular target: Insulin-like growth factor 1 receptor (Homo sapiens, UniProt P08069)
Chain of Insulin-like growth factor 1 receptor (P08069 31-736 limits assumed): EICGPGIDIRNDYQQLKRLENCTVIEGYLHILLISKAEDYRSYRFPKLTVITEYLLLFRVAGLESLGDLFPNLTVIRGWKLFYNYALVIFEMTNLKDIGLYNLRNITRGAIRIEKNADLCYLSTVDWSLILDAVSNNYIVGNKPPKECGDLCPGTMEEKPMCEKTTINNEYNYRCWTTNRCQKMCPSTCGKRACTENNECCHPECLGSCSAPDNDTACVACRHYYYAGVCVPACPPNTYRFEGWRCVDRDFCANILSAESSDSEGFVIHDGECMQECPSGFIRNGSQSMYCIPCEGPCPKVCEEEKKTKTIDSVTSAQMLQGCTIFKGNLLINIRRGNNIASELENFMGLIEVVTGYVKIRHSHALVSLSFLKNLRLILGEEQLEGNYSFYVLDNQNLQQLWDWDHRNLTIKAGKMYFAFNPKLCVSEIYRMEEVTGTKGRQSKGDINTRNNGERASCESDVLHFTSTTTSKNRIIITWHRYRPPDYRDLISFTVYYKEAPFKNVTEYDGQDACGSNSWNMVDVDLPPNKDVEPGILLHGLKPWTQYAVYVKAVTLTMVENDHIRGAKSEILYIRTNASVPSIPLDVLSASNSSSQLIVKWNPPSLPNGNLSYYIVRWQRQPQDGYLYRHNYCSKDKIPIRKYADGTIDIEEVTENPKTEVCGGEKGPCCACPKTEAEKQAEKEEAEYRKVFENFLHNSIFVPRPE
Chain of Insulin-like growth factor 1 receptor (P08069 741-1367 limits assumed): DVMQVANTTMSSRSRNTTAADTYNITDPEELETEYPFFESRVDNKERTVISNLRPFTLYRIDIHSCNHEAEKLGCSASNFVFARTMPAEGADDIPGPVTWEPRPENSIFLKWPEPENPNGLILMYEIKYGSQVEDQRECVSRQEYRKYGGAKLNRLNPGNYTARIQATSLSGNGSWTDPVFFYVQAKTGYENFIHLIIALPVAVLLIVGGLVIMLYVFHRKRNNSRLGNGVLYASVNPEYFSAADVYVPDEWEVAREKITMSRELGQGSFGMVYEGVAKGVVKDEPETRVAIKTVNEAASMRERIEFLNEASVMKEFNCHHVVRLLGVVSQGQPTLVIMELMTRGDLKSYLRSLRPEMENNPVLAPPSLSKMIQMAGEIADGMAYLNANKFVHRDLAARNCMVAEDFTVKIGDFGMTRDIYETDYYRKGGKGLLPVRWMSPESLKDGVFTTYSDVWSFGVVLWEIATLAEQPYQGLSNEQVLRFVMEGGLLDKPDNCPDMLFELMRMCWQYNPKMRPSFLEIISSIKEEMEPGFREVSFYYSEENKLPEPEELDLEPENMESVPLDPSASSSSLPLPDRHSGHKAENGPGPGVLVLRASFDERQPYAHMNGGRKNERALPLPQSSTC
Also: in the data inactive means no Kd found up to 30 µM.

Kd [1]	Kd [2]	Kd [3]	Kd [4]	Kd [5]	Kd [6]	SMILES
> 30 µM (inactive)	> 30 µM (inactive)	> 30 µM (inactive)	> 30 µM (inactive)	> 30 µM (inactive)	> 30 µM (inactive)	O=C(Cc1ccc(-c2ccc(OCCN3CCOCC3)cc2)cn1)NCc1ccccc1 [TIRBANIBULIN]
> 30 µM (inactive)	> 30 µM (inactive)	> 30 µM (inactive)	> 30 µM (inactive)	> 30 µM (inactive)	> 30 µM (inactive)	O=C1NC(=O)[C@@H](c2cn3c4c(cccc24)CCC3)[C@@H]1c1c[nH]c2ccccc12 [TIVANTINIB]
> 30 µM (inactive)	> 30 µM (inactive)	> 30 µM (inactive)	> 30 µM (inactive)	> 30 µM (inactive)	> 30 µM (inactive)	C[C@@H](NC(=O)c1ncnc(N)c1Cl)c1ncc(C(=O)Nc2cc(C(F)(F)F)c(Cl)cn2)s1 [TOVORAFENIB]
> 30 µM (inactive)	> 30 µM (inactive)	> 30 µM (inactive)	> 30 µM (inactive)	> 30 µM (inactive)	> 30 µM (inactive)	Cn1ncc(Cl)c1-c1cc(C(=O)N[C@H](CN)Cc2ccc(F)c(F)c2)oc1Cl [UPROSERTIB]

The next lines start with the molecule.

SMILES	Kd [1]	Kd [2]	Kd [3]	Kd [4]	Kd [5]	Kd [6]
CO[C@H]1C[C@@H]2CC[C@@H](C)[C@@](O)(O2)C(=O)C(=O)N2CCCC[C@H]2C(=O)O[C@H]([C@H](C)C[C@@H]2CC[C@@H](OC(=O)C(C)(CO)CO)[C@H](OC)C2)CC(=O)[C@H](C)/C=C(\C)[C@@H](O)[C@@H](OC)C(=O)[C@H](C)C[C@H](C)/C=C/C=C/C=C/1C [TEMSIROLIMUS]	> 30 µM (inactive)	> 30 µM (inactive)	> 30 µM (inactive)	> 30 µM (inactive)	> 30 µM (inactive)	> 30 µM (inactive)
COc1cc2c(Nc3ccc(Cl)c(Cl)c3F)ncnc2cc1OC[C@@H]1C[C@@H]2CN(C)C[C@@H]2C1 [TESEVATINIB]	> 30 µM (inactive)	> 30 µM (inactive)	> 30 µM (inactive)	> 30 µM (inactive)	> 30 µM (inactive)	> 30 µM (inactive)
Cc1cc(Nc2ncnc3ccc(NC4=NC(C)(C)CO4)cc23)ccc1Oc1ccn2ncnc2c1 [TUCATINIB]	> 30 µM (inactive)	> 30 µM (inactive)	> 30 µM (inactive)	> 30 µM (inactive)	> 30 µM (inactive)	> 30 µM (inactive)
